Assay [1] concerns protein tyrosine kinase (PTK). Put plainly: PTK activity assay with mouse brain tissue extract (ELISA, OD 492 nm). It counts as biochemical. As to conditions: at 400 μM. The protocol: Tyrosine kinase buffer: 10 mL 1M HEPES (pH 7.5), 0.4 mL 5% BSA/PBS, 0.2 mL 0.1M Na3VO4, and 1 mL 5M NaCl were added to 88.4 mL double distilled water (DDW) (HEPES: Amresco; Na3VO4: Sigma).
Extraction of tissue extract PTK: mouse brain tissue was quickly removed and weighed, followed by addition of five-fold volumes of pre-cooled homogenization buffer for homogenization. After centrifugation at 4° C., 1,000 g for 10 min, nuclei and cell debris were removed. The supernatant S1 was collected and centrifuged at 4° C., 10,000 g for 20 min, and then the supernatant S2 was collected. The precipitate P2, which represents the crude membrane protein fraction, was retained. S2 included cytoplasmic protein, and was used for testing protein tyrosine kinase (PTK) activity. In the detection of the membrane protein fraction, two-fold volumes of lysis buffer was added to P2, and the resultant was placed on ice for 10 min and centrifuged at 4° C., 10,000 g for 10 min. The supernatant S3, which represents the crude membrane protein including soluble membrane protein, was collected for testing PTK activity. Protein content in cytoplasm or membrane protein was detected by using BCA protein concentration kit (purchased from Beyotime Institute of Biotechnology). The tissue extract was stored at −70° C.
Coating of 96-well plate: PTK substrate was dissolved and added in an amount of 100 μl to each well. The plate was covered with its lid, and incubated at 4° C. overnight (10-12 hours). Then it was washed with 200 μl elution buffer once, and dried at 37° C. for 2 h. After that, it was washed with 10 mM PBS once, dried at room temperature, and then stored at 4° C. for further use.
Groups: blank control: 80 μl 1× tyrosine kinase buffer containing ATP+20 μl 1× tyrosine kinase buffer; negative control: 80 μl 1× tyrosine kinase buffer containing ATP+10 μl 1× tyrosine kinase buffer+7 μl tissue extract+3 μl 1× tyrosine kinase buffer; positive control: 80 μl 1× tyrosine kinase buffer containing ATP+10 μl Gefitinib+7 μl tissue extract+3 μl 1× tyrosine kinase buffer (first, the positive drug was allowed to interact with the tyrosine kinase tissue extract at room temperature for 10 min, and meanwhile the tissue extract for the negative control group was also placed at room temperature for 10 min, and then 80 μl 1× tyrosine kinase buffer containing ATP was added to respective groups); vehicle control: 80 μl 1× tyrosine kinase buffer containing ATP+10 μl DMSO+7 μl tissue extract+3 μl 1× tyrosine kinase buffer; drugs to be screened: 80 μl 1× tyrosine kinase buffer containing ATP+10 μl drug to be tested +7 μl tissue extract+3 μl 1× tyrosine kinase buffer.
PTK activity assay: 1× tyrosine kinase buffer was prepared by evenly mixing 1 mL (10×) tyrosine kinase buffer with 9 mL DDW. The tissue extract was diluted with 1× tyrosine kinase buffer appropriately, mixed with it gently and evenly, and placed on ice. ATP stock solution was dissolved by evenly mixing 48 μl ATP stock solution with 1 mL 1× tyrosine kinase buffer, and placed on ice. The microplate reader was added in respective wells with the groups formulated as above, covered with the lid, and incubated at room temperature for 30 min. The microplate reader was washed with 200 μl elution buffer and tapped until the residual buffer was removed, and this procedure was repeated for five times. To each well, 100 μl antibody diluent (antibody elution buffer diluted at a ratio of 1:2000) was added. The reader was covered with the lid, and incubated at room temperature for 30 min. OPD solution was prepared by addition of 4 mg OPD into a mixture of 4.86 mL 0.1 mol/L citric acid solution and 5.14 mL 0.2 mol/L Na2HPO4 solution, followed by addition of 50 μl 30% H2O2 to allow for complete dissolution, and then was protected from light. The antibody solution was removed. The reader was washed with 200 μl elution buffer and tapped until the residual buffer was removed, and this procedure was repeated for five times.
A general note: ELISA stands for enzyme-linked immunosorbent assay.

Assay [2] deals with MHCC97-H cells. The assay is described as follows: In vitro antitumor activity, MTS cell proliferation. It counts as cell-based, human. Conditions: hepatocellular cancer, 72 hours. The protocol: (§1) Method: 14 cell lines (MKN-45 cells, MHCC97-L cells, MHCC97-H cells, HLE cells, HepG2 cells, 7721 cells, L02 cells, A375 cells, H460 cells, A549 cells, SK-N-SH cells, MCF-7 cells, K562 cells, and Ba/F3-Tpr-Met cells (pre-B cells which are malignantly transformed by the c-Met constitutive active mutant Tpr-Met) were seeded into 96-well plate at 1×10^4 cells/well, and each well was added with 150 μl DMEM medium (purchased from Invitrogen) containing 10% fetal bovine serum (purchased from Hyclone). When cell adherent was observed, different concentrations of 2-indolone derivatives (concentrations at 0.1-10 μM) were added, in addition to the negative control (vehicle control group) and blank control (medium group). After culture at 37° C., 5% CO2 for 72 hours, MTS reagent (Promega Corporation) were added for further culture for 2-4 h.

Assay [3] relates to A549 cells. Described as above. As to conditions: A549, lung cancer, 72 hours. It counts as cell-based, human. The procedure:
as §1

The test system of assay [4] is HepG2 cells. The description is as above. It is filed as cell-based. Conditions: HepG2, hepatocellular cancer, 72 hours. The protocol:
as §1

Assay [5] deals with MHCC97-L cells. The assay is described as above. As to conditions: hepatocellular cancer, 72 hours. It counts as cell-based. The protocol:
as §1

Assay [6] concerns MKN-45 cells. Described as above. It counts as cell-based. Conditions: MKN-45, gastric cancer, 72 hours. The protocol:
as §1

For assay [7], the system named is HLE cells. The description is as above. It counts as cell-based. As to conditions: hepatocellular cancer, 72 hours. The procedure: as §1
In assay [8] the test system is MCF-7 cells. The assay is described as above. It counts as cell-based. As to conditions: MCF-7, breast cancer, 72 hours. The protocol:
as §1

Assay [9] deals with Ba/F3-Tpr-Met cells. Described as above. It is filed as cell-based. As to conditions: pre-B cell, 72 hours. The protocol: as §1
Assay [10] has as its system K562 cells. Described as above. It is filed as cell-based. Conditions: K562, leukemia, 72 hours. The procedure:
as §1

In assay [11] the test system is A375 cells. Described as above. It counts as cell-based. Conditions: A375, skin cancer, 72 hours. The protocol: as §1
Assay [12] has as its system H460 cells. The assay is described as above. It is filed as cell-based. As to conditions: H460, lung cancer, 72 hours. The protocol:
as §1

Assay [13] has as its system SK-N-SH cells. The assay is described as above. It counts as cell-based. As to conditions: neuroblastoma, 72 hours. The protocol: as §1
The test system of assay [14] is L02 cells. The assay is described as follows: MTS cell proliferation, normal liver cells. It counts as cell-based. Conditions: L02, normal hepatic cells, 72 hours. The protocol:
[…] After culture at 37° C., 5% CO2 for 72 hours, MTS reagent (Promega Corporation) were added for further culture for 2-4 h.

Regarding `O=C1Nc2ccc(S(=O)(=O)Nc3ccc4ccccc4c3)cc2C1=Cc1nc2ccccc2[nH]1` [Indo 1, 3-(1H-benzimidazol-2-methylene)-5-(β-naphthylaminosulfo)-2-indolone], the “Inhibition rate on tyrosine kinase” value in assay [1] is 51.2%. Besides, the concentration for half-maximal inhibition (IC50) in [2] worked out at 1.38 µM; in [3], 2.89 µM; in assay [4] it was 6.47 µM; in assay [5] it was 1.54 µM; in assay [6], 1.97 µM; in assay [7], 6.31 µM. The IC50 in assay [8] is 1.72 µM; in assay [9], 5.31 µM; in assay [10] it was 3.02 µM; in assay [11], 3.18 µM; in [12], 1.54 µM; in assay [13], 1.35 µM. In assay [14], this molecule yielded an IC50 of 24.8 µM.

On to `O=C1Nc2ccc(S(=O)(=O)Nc3ccc(F)c(Cl)c3)cc2C1=Cc1nc2ccccc2[nH]1` [Indo 2, 3-(1H-benzimidazol-2-methylene)-5-(3-chloro-4-fluorophenylaminosulfo)-2-indolone], for which the “Inhibition rate on tyrosine kinase” value in [1] is 45.2%. The IC50 is 1.67 µM in assay [2]; 3.16 µM in [3]; 6.98 µM in assay [4]; 1.87 µM in assay [5]; 2.13 µM in assay [6]; 6.79 µM in [7]. The half-inhibitory concentration (IC50) stood at 1.95 µM in assay [8]; 5.93 µM in assay [9]; 3.27 µM in [10]; 2.48 µM in assay [11]; 1.78 µM in [12]; 1.79 µM in assay [13]. This molecule also had an IC50 in assay [14] of 23.7 µM.

For `CN(c1ccccc1)S(=O)(=O)c1ccc2c(c1)C(=Cc1nc3ccccc3[nH]1)C(=O)N2` [Indo 3, 3-(1H-benzimidazol-2-methylene)-5-(N-methylphenylaminosulfo)-2-indolone], in assay [1], the “Inhibition rate on tyrosine kinase” value came to 55.9%. Besides, the IC50 in assay [2] stood at 0.82 µM; in [3], 1.54 µM; in [4], 4.79 µM; in assay [5], 1.11 µM; in assay [6], 1.29 µM; in assay [7], 4.72 µM. For the same molecule, the IC50 in assay [8] was found to be 0.96 µM; in assay [9], 3.87 µM; in assay [10] it was 2.07 µM; in assay [11], 1.47 µM; in [12] it was 1.05 µM; in assay [13], 0.85 µM. In assay [14], this molecule had a concentration for half-maximal inhibition (IC50) of 22.2 µM.

As for `O=C1Nc2ccc(S(=O)(=O)NC3CCCCC3)cc2C1=Cc1nc2ccccc2[nH]1` [Indo 4, 3-(1H-benzimidazol-2-methylene)-5-(cyclohexylaminosulfo)-2-indolone], the “Inhibition rate on tyrosine kinase” value in assay [1] came out at 60.7%. The half-inhibitory concentration (IC50) was 0.54 µM in assay [2]; 2.32 µM in [3]; 3.69 µM in [4]; 0.64 µM in [5]; 0.94 µM in assay [6]; 3.58 µM in [7]. In addition, the half-inhibitory concentration (IC50) is 1.46 µM in assay [8]; 2.54 µM in [9]; 1.34 µM in assay [10]; 0.97 µM in [11]; 0.78 µM in assay [12]; 0.54 µM in assay [13]. Moreover, in assay [14], the half-inhibitory concentration (IC50) worked out at 26.8 µM.

Turning to `O=C1Nc2ccc(S(=O)(=O)Nc3ccc(Cl)cc3)cc2C1=Cc1nc2ccccc2[nH]1` [Indo 6, 3-(1H-benzimidazol-2-methylene)-5-(4-chlorophenylaminosulfo)-2-indolone], the “Inhibition rate on tyrosine kinase” value in assay [1] was found to be 55.0%. For the same molecule, the IC50 in assay [2] is 0.91 µM; in assay [3], 1.99 µM; in assay [4], 5.18 µM; in assay [5], 1.06 µM; in assay [6], 1.38 µM; in assay [7], 4.87 µM. Also, the concentration for half-maximal inhibition (IC50) is 1.12 µM in [8]; 4.21 µM in [9]; 2.21 µM in [10]; 1.65 µM in assay [11]; 0.94 µM in assay [12]; 1.06 µM in assay [13]. Further, the half-inhibitory concentration (IC50) in assay [14] was found to be 22.7 µM.

As to `O=C1Nc2ccc(S(=O)(=O)Nc3ccc(CCO)cc3)cc2C1=Cc1nc2ccccc2[nH]1` [Indo 7, 3-(1H-benzimidazol-2-methylene)-5-(4-hydroxyethylphenylaminosulfo)-2-indolone], in assay [1], the “Inhibition rate on tyrosine kinase” value is on record as 58.2%. For the same molecule, the IC50 in assay [2] amounted to 0.69 µM; in [3], 1.28 µM; in assay [4], 4.25 µM; in [5], 0.97 µM; in assay [6], 1.13 µM; in assay [7], 4.36 µM. The IC50 turned out to be 0.83 µM in assay [8]; 3.11 µM in assay [9]; 1.67 µM in assay [10]; 1.22 µM in assay [11]; 0.92 µM in assay [12]; 0.67 µM in [13]. The molecule further showed a half-inhibitory concentration (IC50) in [14] of 25.7 µM.

For `Cc1ccc(NS(=O)(=O)c2ccc3c(c2)C(=Cc2nc4ccccc4[nH]2)C(=O)N3)cc1` [Indo 8, 3-(1H-benzimidazol-2-methylene)-5-(4-methylphenylaminosulfo)-2-indolone], the “Inhibition rate on tyrosine kinase” value in [1] was 49.9%. Moreover, the IC50 in assay [2] came out at 1.53 µM; in assay [3] it was 3.02 µM; in [4], 6.74 µM; in assay [5], 1.68 µM; in [6], 2.02 µM; in assay [7] it was 6.58 µM. Further, the IC50 amounted to 1.81 µM in assay [8]; 5.68 µM in assay [9]; 3.11 µM in assay [10]; 2.35 µM in assay [11]; 1.63 µM in assay [12]; 1.57 µM in [13]. Further, the IC50 in [14] was 25.3 µM.

As a reminder, the IC50 is the midpoint of a concentration-inhibition curve. Higher therefore signals weaker potency.

These data come from patent US9642839B2, “Substance having tyrosine kinase inhibitory activity and preparation method and use thereof” (Institute of Radiation Medicine, China Academy of Military …, priority 2013, dated 2017).
